Test results: publication PMC10974603, “Cytotoxicity and Multi-Enzyme Inhibition of Nepenthes miranda Stem Extract on H838 Human Non-Small Cell Lung Cancer Cells and RPA32, Elastase, Tyrosinase, and Hyaluronidase Proteins” (Plants, 2024)

How the values were obtained:
[1] = biological target: T1, hyaluronidase from bovine testes type I-S (Bos taurus, UniProt Q2YDK3); experiment: turbidity with acidic albumin, absorbance […] nm; assay type: biochemical; conditions: hyaluronic acid substrate (0.03% stock); phosphate pH 5.35; 37 °C; 45 min; preincubation at pH 7
T1 construct: gene SPAM1; native bovine testes enzyme, commercial type I-S preparation
T1 sequence (Q2YDK3 36-553): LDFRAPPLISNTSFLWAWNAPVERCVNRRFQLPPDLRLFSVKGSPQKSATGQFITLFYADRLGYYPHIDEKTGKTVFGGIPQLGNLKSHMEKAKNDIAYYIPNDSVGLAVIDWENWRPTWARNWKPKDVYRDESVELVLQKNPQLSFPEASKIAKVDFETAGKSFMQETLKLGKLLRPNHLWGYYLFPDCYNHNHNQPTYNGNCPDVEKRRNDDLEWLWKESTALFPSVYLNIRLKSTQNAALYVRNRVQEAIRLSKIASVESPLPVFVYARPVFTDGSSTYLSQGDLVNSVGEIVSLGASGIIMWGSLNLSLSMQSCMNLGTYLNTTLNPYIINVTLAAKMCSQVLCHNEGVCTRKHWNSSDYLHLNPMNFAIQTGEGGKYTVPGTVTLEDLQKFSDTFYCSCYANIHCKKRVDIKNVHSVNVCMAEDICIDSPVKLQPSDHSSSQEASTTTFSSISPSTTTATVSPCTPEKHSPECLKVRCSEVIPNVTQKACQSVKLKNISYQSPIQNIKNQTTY

[2] = biological target: T2, elastase (Porcine pancreatic elastase) (Sus scrofa, UniProt P00772); experiment: absorbance […] nm, p-nitroanilide release; assay type: biochemical
T2 construct: gene CELA1; native pancreatic enzyme, commercial preparation; mature active enzyme
T2 sequence (P00772 27-266): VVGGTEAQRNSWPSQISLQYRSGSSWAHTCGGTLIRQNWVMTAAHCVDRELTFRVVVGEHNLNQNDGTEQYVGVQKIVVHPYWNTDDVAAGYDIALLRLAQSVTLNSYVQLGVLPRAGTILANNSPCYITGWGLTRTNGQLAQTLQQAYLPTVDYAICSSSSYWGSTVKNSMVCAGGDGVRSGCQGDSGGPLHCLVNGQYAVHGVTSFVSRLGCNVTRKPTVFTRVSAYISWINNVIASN

huRPA32 = huRPA32 (human, UniProt P15927 1-270); experiment: EMSA; no extract; [Protein]50; 40 mM Tris-HCl pH 7.5, 50 mM NaCl, 37 °C 60 min, DNA 30 fmol/uL; 8% native PAGE in TBE; conditions: protein: recombinant; tags: N-terminal EF (EcoRI site); label: 5' biotin; single-stranded
Chain of huRPA32 (P15927 whole entry): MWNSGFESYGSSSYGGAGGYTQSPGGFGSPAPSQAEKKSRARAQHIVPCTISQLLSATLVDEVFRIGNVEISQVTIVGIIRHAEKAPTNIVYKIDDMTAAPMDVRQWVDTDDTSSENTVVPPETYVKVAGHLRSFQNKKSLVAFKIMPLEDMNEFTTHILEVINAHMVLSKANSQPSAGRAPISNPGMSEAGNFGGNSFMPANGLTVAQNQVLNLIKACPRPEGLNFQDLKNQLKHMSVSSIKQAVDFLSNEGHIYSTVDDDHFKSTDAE

In the case of `O=c1c(O)c(-c2cc(O)c(O)c(O)c2)oc2cc(O)cc(O)c12` [Myr], the IC50 [1] is reported as 29.9 µM.

Molecule `O=C(O[C@@H]1Cc2c(O)cc(O)cc2O[C@@H]1c1cc(O)c(O)c(O)c1)c1cc(O)c(O)c(O)c1` [EGCG] has an IC50 [2] of 9.62 µM.

B1: dT25 (ssDNA)
DNA: TTTTTTTTTTTTTTTTTTTTTTTTT
With B1 the “apparent K (half saturation)” value (huRPA32) was 6.3 ± 0.5 µM.
